According to ChEMBL document CHEMBL4346703, “Structure Overhaul Affords a Potent Purine PI3Kδ Inhibitor with Improved Tolerability” (J Med Chem, 2019):

Key:
[1] = Inhibition of adenosine transporter in human HeLa cells assessed as reduction in [3H]adenosine uptake preincubated for 30 mins followed by [3H]adenosine addition and measured after 60 mins; assay type: ADME, cell-based
[2] = Protein binding in Wistar Han rat plasma; assay type: ADME, cell-free; conditions: read-out: PPB (converted)
[3] = biological target: PI3-kinase p110-alpha/p85-alpha (Homo sapiens, UniProt P42336); assay: Inhibition of N-terminal His6-tagged recombinant full length human p110alpha/untagged recombinant full length human p85alpha expressed in baculovirus infected Sf21 insect cells using PIP2 as substrate preincubated for 15 mins followed by substrate addition and measured after 1 hr by HTRF assay
[4] = Volume of distribution in Beagle dog; assay type: ADME, Canis lupus familiaris; conditions: in vivo
[5] = Half-life in Beagle dog; assay type: ADME, Canis lupus familiaris; conditions: in vivo
[6] = Intrinsic clearance in Beagle dog at 0.05 mg/kg; assay type: ADME, organism-based, Canis lupus familiaris; conditions: in vivo
[7] = Plasma clearance in Beagle dog at 0.05 mg/kg; assay type: ADME, organism-based, Canis lupus familiaris
[8] = Intrinsic clearance in Wistar Han rat at 0.05 mg/kg; assay type: ADME, organism-based; conditions: in vivo
[9] = Unbound volume of distribution in Beagle dog; assay type: ADME, Canis lupus familiaris; conditions: in vivo
[10] = Plasma clearance in Wistar Han rat at 0.05 mg/kg; assay type: ADME, organism-based
[11] = Unbound volume of distribution in Wistar Han rat; assay type: ADME; conditions: in vivo
[12] = Lipophilicity, log D of the compound; assay type: physicochemical; conditions: octanol/water
[13] = Protein binding in Beagle dog plasma; assay type: ADME, cell-free, Canis lupus familiaris; conditions: read-out: PPB (converted)
[14] = Volume of distribution in Wistar Han rat; assay type: ADME; conditions: in vivo
[15] = Half-life in Wistar Han rat; assay type: ADME; conditions: in vivo
[16] = biological target: T1, Phosphatidylinositol 4,5-bisphosphate 3-kinase catalytic subunit delta isoform (Homo sapiens, UniProt O00329); assay: Inhibition of PI3Kdelta in human Ramos cells assessed as reduction in anti-IgM-antibody-induced phosphorylation of AKT at Ser473 residue preincubated for 20 mins followed by anti-IgM antibody stimulation and measured after 30 mins by alphascreen assay; assay type: cell-based
T1 sequence (O00329 whole entry): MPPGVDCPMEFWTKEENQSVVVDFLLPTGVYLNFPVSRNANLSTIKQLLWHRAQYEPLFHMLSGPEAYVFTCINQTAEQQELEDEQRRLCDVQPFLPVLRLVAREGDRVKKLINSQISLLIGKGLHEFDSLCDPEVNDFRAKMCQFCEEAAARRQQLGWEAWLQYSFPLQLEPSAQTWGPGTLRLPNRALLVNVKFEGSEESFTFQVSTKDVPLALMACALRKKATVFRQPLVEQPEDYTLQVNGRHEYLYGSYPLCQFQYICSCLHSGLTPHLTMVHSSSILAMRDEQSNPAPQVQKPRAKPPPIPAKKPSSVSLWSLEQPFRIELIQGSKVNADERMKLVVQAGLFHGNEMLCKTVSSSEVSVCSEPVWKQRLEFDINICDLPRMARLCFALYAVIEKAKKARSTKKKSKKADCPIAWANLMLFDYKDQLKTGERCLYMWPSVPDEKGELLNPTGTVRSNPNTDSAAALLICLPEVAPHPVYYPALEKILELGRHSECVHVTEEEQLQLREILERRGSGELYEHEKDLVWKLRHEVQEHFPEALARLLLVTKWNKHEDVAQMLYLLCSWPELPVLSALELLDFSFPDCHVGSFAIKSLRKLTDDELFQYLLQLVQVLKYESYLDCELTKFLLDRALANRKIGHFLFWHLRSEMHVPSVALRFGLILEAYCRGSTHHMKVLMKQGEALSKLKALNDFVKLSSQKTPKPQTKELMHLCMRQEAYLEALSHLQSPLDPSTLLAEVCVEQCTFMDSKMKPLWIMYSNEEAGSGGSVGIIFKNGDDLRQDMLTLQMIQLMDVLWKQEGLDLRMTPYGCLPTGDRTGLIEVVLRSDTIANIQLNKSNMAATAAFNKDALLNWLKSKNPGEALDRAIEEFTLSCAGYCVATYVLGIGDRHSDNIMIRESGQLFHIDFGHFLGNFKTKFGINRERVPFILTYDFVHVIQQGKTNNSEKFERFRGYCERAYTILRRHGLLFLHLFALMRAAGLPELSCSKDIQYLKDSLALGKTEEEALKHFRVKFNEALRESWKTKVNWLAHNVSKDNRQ

[17] = biological target: PI3-kinase p110-delta/p85-alpha (Homo sapiens, UniProt O00329); assay: Inhibition of N-terminal His6-tagged recombinant full length human p110delta/untagged recombinant full length human p85alpha expressed in baculovirus infected Sf21 insect cells using PIP2 as substrate preincubated for 15 mins followed by substrate addition and measured after 1 hr by HTRF assay
Homo sapiens = organism: Homo sapiens; assay: Selectivity ratio of IC50 for N-terminal His6-tagged recombinant full length human p110alpha/untagged recombinant full length human p85alpha expressed in baculovirus infected Sf21 insect cells to IC50 for N-terminal His6-tagged recombinant full length human p110delta/untagged recombinant full length human p85alpha expressed in baculovirus infected Sf21 insect cells
[18] = biological target: cGMP-dependent 3',5'-cyclic phosphodiesterase (Homo sapiens, UniProt O00408); assay: Inhibition of PDE2 (unknown origin)
Phosphodiesterase 4 = Phosphodiesterase 4 (Homo sapiens, UniProt P27815+Q08499+Q07343+Q08493); assay: Inhibition of PDE4 (unknown origin); assay type: protein assay
Phosphodiesterase 6 = assay: Inhibition of PDE6 (unknown origin); assay type: protein assay, Homo sapiens
Phosphodiesterase 3 = Phosphodiesterase 3 (Homo sapiens, UniProt Q14432+Q13370); assay: Inhibition of PDE3 (unknown origin); assay type: protein assay
[19] = biological target: High affinity cAMP-specific and IBMX-insensitive 3',5'-cyclic phosphodiesterase 8A (Homo sapiens, UniProt O60658); assay: Inhibition of PDE8 (unknown origin)
[20] = biological target: cAMP and cAMP-inhibited cGMP 3',5'-cyclic phosphodiesterase 10A (Homo sapiens, UniProt Q9Y233); assay: Inhibition of PDE10 (unknown origin)
Phosphodiesterase 1 = Phosphodiesterase 1 (Homo sapiens, UniProt P54750+Q01064+Q14123); assay: Inhibition of PDE1 (unknown origin); assay type: protein assay
[21] = biological target: Dual 3',5'-cyclic-AMP and -GMP phosphodiesterase 11A (Homo sapiens, UniProt Q9HCR9); assay: Inhibition of PDE11 (unknown origin)
[22] = biological target: cGMP-specific 3',5'-cyclic phosphodiesterase (Homo sapiens, UniProt O76074); assay: Inhibition of PDE5 (unknown origin)
[23] = biological target: High affinity cGMP-specific 3',5'-cyclic phosphodiesterase 9A (Homo sapiens, UniProt O76083); assay: Inhibition of PDE9 (unknown origin)
Phosphodiesterase 7 = Phosphodiesterase 7 (Homo sapiens, UniProt Q13946+Q9NP56); assay: Inhibition of PDE7 (unknown origin); assay type: protein assay

Chain of PI3-kinase p110-alpha/p85-alpha (P27986 whole entry): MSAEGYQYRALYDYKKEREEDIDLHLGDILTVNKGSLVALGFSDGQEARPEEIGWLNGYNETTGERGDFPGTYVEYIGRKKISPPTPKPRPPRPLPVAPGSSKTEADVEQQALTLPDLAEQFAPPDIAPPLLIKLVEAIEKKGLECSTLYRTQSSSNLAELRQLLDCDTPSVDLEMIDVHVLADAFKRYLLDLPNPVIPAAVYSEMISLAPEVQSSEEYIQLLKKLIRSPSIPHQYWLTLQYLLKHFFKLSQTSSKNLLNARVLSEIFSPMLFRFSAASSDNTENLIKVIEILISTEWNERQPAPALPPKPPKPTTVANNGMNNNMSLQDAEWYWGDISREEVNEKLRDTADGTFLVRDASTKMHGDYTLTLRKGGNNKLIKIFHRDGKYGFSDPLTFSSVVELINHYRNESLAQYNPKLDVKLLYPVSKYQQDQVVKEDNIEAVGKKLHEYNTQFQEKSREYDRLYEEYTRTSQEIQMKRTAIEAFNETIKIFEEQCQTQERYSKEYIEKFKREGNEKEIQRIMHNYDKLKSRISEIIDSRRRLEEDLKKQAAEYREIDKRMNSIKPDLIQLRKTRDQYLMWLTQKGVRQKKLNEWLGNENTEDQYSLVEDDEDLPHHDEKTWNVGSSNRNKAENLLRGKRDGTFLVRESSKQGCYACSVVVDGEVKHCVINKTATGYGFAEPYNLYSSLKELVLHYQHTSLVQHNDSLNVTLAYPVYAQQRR
Chain of PI3-kinase p110-alpha/p85-alpha (P42336 whole entry): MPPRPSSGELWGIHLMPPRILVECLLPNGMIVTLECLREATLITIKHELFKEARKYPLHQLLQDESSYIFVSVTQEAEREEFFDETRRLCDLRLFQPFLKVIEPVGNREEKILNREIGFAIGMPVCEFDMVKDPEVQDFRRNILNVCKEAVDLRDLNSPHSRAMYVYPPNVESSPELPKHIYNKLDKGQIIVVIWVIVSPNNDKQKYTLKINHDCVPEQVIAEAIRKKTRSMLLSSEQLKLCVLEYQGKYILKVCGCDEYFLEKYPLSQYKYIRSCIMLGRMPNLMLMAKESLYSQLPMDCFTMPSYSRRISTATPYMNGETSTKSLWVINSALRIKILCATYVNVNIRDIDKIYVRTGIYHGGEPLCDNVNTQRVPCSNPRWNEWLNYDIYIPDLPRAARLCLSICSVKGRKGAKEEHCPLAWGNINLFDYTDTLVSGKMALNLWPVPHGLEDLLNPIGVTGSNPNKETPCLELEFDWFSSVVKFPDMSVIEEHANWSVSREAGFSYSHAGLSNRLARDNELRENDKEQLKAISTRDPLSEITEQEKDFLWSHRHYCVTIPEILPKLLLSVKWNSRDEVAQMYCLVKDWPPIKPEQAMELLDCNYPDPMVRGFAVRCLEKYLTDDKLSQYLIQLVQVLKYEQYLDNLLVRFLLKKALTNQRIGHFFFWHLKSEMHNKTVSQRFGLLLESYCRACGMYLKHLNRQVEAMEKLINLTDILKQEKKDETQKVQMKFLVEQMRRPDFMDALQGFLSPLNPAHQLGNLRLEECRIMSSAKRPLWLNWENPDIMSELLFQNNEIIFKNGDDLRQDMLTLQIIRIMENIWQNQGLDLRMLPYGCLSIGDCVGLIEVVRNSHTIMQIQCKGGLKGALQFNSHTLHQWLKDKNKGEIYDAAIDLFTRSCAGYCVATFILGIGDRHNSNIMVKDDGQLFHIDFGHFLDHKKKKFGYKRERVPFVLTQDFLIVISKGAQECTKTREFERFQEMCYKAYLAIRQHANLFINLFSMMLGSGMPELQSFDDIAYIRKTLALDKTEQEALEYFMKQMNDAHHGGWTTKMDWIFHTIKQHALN
Chain of PI3-kinase p110-delta/p85-alpha (P27986 whole entry, one chain of several): as the sequence (P27986 whole entry) above
Chain of cAMP and cAMP-inhibited cGMP 3',5'-cyclic phosphodiesterase 10A (Q9Y233 whole entry): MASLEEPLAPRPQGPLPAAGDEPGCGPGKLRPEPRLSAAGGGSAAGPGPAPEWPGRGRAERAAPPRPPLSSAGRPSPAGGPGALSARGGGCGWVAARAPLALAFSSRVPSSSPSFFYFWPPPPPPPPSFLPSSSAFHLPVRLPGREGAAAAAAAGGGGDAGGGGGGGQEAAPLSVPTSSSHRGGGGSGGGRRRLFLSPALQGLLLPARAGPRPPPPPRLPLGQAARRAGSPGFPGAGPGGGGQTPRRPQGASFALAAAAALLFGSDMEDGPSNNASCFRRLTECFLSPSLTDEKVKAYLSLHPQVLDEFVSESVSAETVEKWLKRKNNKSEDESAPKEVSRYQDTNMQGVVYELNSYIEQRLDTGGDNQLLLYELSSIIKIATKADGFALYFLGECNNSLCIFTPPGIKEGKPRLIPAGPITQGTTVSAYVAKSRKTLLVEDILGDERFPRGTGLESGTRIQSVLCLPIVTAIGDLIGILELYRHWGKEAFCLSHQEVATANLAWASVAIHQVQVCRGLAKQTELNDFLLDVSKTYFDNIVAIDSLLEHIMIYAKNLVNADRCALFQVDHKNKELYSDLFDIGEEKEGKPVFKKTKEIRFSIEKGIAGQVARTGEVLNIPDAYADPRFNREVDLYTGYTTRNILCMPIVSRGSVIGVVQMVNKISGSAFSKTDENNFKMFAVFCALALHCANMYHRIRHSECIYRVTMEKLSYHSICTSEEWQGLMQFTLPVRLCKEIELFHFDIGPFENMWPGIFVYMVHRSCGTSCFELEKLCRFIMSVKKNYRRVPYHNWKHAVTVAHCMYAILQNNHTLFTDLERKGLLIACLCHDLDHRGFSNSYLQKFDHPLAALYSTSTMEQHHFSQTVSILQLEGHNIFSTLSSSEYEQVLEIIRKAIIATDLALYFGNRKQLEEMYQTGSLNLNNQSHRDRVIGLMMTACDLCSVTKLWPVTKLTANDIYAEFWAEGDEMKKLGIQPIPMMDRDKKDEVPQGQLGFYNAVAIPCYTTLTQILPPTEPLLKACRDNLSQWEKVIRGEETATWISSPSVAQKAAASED
Chain of High affinity cAMP-specific and IBMX-insensitive 3',5'-cyclic phosphodiesterase 8A (O60658 whole entry): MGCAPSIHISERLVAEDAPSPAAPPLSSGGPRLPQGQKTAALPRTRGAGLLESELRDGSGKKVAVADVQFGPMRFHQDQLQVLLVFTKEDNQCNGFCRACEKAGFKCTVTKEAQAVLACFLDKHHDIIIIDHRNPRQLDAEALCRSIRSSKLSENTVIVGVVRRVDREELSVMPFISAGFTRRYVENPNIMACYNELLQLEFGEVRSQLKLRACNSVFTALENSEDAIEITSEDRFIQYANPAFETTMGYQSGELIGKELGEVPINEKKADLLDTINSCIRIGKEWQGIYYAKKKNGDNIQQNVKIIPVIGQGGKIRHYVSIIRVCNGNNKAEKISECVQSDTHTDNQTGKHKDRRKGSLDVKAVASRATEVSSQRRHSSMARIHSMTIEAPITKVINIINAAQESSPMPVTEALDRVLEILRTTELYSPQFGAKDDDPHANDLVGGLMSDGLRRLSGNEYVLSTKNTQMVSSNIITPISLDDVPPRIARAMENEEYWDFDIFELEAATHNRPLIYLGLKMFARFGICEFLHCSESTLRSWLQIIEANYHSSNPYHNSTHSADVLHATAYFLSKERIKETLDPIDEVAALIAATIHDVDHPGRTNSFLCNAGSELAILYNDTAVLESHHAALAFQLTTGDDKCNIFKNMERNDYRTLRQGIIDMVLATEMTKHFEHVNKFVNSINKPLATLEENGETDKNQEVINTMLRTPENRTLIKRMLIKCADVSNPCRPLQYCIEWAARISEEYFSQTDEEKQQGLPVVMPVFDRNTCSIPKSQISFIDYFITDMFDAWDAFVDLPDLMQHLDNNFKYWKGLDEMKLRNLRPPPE
Chain of Dual 3',5'-cyclic-AMP and -GMP phosphodiesterase 11A (Q9HCR9 whole entry): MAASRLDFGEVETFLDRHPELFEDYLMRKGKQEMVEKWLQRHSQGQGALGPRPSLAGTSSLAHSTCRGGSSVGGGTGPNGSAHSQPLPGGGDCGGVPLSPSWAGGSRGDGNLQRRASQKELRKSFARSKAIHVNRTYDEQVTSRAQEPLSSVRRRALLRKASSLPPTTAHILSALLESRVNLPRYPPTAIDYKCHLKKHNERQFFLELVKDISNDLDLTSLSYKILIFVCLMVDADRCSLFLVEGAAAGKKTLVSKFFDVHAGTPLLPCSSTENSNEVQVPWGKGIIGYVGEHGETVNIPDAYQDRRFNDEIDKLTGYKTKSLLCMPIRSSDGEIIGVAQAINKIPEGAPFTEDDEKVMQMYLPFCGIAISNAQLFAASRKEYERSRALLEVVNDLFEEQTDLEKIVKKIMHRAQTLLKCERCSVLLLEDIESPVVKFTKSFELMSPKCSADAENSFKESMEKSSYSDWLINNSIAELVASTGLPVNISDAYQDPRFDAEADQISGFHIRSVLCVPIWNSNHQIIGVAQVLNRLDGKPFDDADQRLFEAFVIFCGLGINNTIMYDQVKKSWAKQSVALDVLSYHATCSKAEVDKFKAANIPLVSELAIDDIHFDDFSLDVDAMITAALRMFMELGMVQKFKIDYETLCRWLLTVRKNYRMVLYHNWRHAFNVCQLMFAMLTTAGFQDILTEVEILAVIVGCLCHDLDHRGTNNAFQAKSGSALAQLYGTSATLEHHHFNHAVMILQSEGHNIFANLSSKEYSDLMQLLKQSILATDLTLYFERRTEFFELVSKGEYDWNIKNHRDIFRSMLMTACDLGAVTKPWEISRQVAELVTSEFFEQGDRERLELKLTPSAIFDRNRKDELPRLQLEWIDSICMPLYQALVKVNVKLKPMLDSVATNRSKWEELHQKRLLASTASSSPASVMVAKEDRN

| Structure (SMILES) | IC50 [1] [nM] | IC50 [3] [nM] | IC50 [16] [nM] | IC50 [17] [nM] | further results |
| --- | --- | --- | --- | --- | --- |
| CC[C@H](Nc1ncnc2c1nc(-c1cnn(CC)c1C)n2C)C(=O)N1C[C@@H](C)O[C@@H](C)C1 | 3130 | 262 | – | – | fraction unbound [2]: 0.42; Vd [4]: 0.9 L/kg; half-life [5]: 72 min; CL [6]: 25 mL/min/kg; clearance [7]: 7.9 mL/min/kg; CL [8]: 290 mL/min/kg; Vdu [9]: 2 L/kg; clearance [10]: 50 mL/min/kg; Vdu [11]: 3 L/kg; logD [12]: 1.7; fraction unbound [13]: 0.42; Vd [14]: 1.1 L/kg; half-life [15]: 18 min |
| CCn1ncc(-c2nc3c(N[C@H]4CC[C@@H](C(=O)N5CCOCC5)C4)ncnc3n2C)c1C | 5520 | 90 | 153 | 11 | – |
| CCn1ncc(-c2nc3c(S[C@H]4CCN(C(=O)C5CCOCC5)C4)ncnc3n2C)c1C | 1400 | 597 | 572 | 15 | – |
| CCCN1CC[C@H](Nc2ncnc3c2nc(-c2cnn(CC)c2C)n3C)C1 | 2560 | 1310 | 1290 | – | – |
| CCn1ncc(-c2nc3c(NC4CC(=O)N(CC(C)C)C4)ncnc3n2C)c1C (stereo unspecified) | 2250 | 121 | 45 | 4.3 | – |
| CCC(=O)N1CC(Nc2ncnc3c2nc(-c2cnn(CC)c2C)n3C)C1 | > 10000 | 904 | 2210 | – | Ratio IC50 (Homo sapiens): 16 |
| CCC(=O)N1CC[C@H](Nc2ncnc3c2nc(-c2cnn(CC)c2C)n3C)C1 | 7250 | 94 | 24 | 1.6 | IC50 [18]: > 20000 nM; IC50 (Phosphodiesterase 4): 8400 nM; fraction unbound [2]: 0.49; IC50 (Phosphodiesterase 6): > 20000 nM; IC50 (Phosphodiesterase 3): > 20000 nM; IC50 [19]: > 20000 nM; CL [8]: 370 mL/min/kg; IC50 [20]: > 20000 nM; IC50 (Phosphodiesterase 1): > 20000 nM; IC50 [21]: > 20000 nM; clearance [10]: 58 mL/min/kg; IC50 [22]: > 20000 nM; Vdu [11]: 4 L/kg; logD [12]: 0.8; IC50 [23]: > 20000 nM; IC50 (Phosphodiesterase 7): > 20000 nM; Vd [14]: 1.8 L/kg; half-life [15]: 24 min |
| CCC(=O)N1CC[C@@H](Nc2ncnc3c2nc(-c2cnn(CC)c2C)n3C)C1 | > 1000 | 540 | 187 | 26 | – |
| CCn1ncc(-c2nc3c(N[C@H](C)C(=O)N4CCOCC4)ncnc3n2C)c1C | > 10000 | > 10000 | – | 1080 | – |
| CCn1ncc(-c2nc3c(N[C@@H](C)C(=O)N4CCOCC4)ncnc3n2C)c1C | 6550 | 406 | 719 | 24 | – |
| CC[C@H](Nc1ncnc2c1nc(-c1cnn(CC)c1C)n2C)C(=O)N(C)C | > 10000 | 1070 | 1470 | 34 | – |
